Laboratory results: patent US10765763B2, “Radioligands for myelin” (CASE WESTERN RESERVE UNIVERSITY, priority 2016, dated 2020)
“Also recorded” adds a separate entry of the source.

Columns and labels:
myelin [1] = assay: In vitro detection of focal demyelination in LPC rat model; type: binding; conditions: in vitro tissue staining
Description: Sprague-Dawley female rats (220-250 g, 8 weeks old) were anesthetized and positioned in a stereotaxic frame (Stoelting). A small incision was made in the scalp, and the corpus callosum was targeted using the following stereotaxic coordinates, relative to bregma: anterior-posterior, 0.0 mm; medial-lateral, 2.0 mm; and dorsal-ventral, 3.4 mm A small hole was drilled in the skull, and a 26S-gauge needle attached to a 10 μL Hamilton Syringe was lowered into the corpus callosum according to the dorsal-ventral coordinate. A microinjector pump (Stoelting) controlled the infusion of 6 μL of lysolecithin (LPC, 0.1% in saline) at a rate of 0.25 μL/min, after which the needle was left in place for 2 min in order to prevent liquid reflux out of the brain parenchyma. The incision was then closed using 5-0 Ethicon sutures, and the animals were allowed to recover on a heating pad. After 5-7 days, the animals were ready for study.
Five days after surgery, the rats were anesthetized and perfused with saline followed by 4% PFA. […] Sections were then examined under a microscope (Leica DM4000B, Leica Microsystem Inc., Buffalo Grove, Ill., USA) equipped for fluorescence (DFC7000T), and images of the stained mouse whole brain sections were acquired with the same exposure time. […]

myelin [2] = assay: In situ staining of compound 21 in wild-type mice; type: in vivo, mouse; conditions: WT mice, 1.0 mg (50 mg/kg) tail vein, 1 h
Description: Wild-type mice were administered the newly synthesized compounds (40 mg/kg) via tail vein injection, and 30-60 min later the mice were perfused transcardially with saline followed by 4% PFA in PBS. Brains and spinal cords were then removed, postfixed by immersion in 4% PFA overnight, dehydrated in 30% sucrose solution, cryostat sectioned at 100 μm, mounted on superfrost slides, and images were acquired directly using a Leica fluorescent microscope.
Following the in vitro studies, we then investigated the ability of compound 21 to readily enter the brain and bind to myelin in situ. A dose of 1.0 mg of compound 21 (50 mg/kg) was administered via the tail vein to wild-type (WT) mice. One hour after injection, the mice were perfused with saline followed by 4% paraformaldehyde (PFA) and the brain and spinal cord were removed and sectioned. The distribution of compound 21 was then directly examined under a fluorescent microscope.

myelin [3] = assay: In situ histological staining of SCI (T13) spinal cord after microPET/CT; type: in vivo, rat; conditions: SCI rats, 60 min after tail vein injection
Description: After microPET imaging studies, the rats were administered compound 21 (3-5 mg) via tail vein injection, and 60 min later the rats were perfused transcardially with saline followed by 4% PFA in PBS. Spinal cords were then removed, postfixed by immersion in 4% PFA overnight, dehydrated in 30% sucrose solution, cryostat sectioned at 100 μm, mounted consecutively on superfrost slides, and images were sequentially acquired directly using a Leica fluorescent microscope to give a series of 2D microscopic images along the length of the spinal cord. Slices were aligned sequentially using a semiautomated image registration algorithm. Starting from the first slice image, the current slice was used as the reference image for alignment and the next slice was the floating image. The floating image was aligned via control point pairs between corresponding anatomic features in the two images. A 2D rigid-body transformation (translation, rotation) was used to transform the floating image to align with the reference and a minimum of three control point pairs were used for the transformation. […] All slices in the sequence were aligned by this technique, giving a 3D reconstructed fluorescence image volume. Image volumes from fluorescence, PET, and CT were visualized in Amira using volume rendering and aligned based on the shape of the spine and fiducials from the vertebrae. […]

[4] = Quantitative microPET/CT imaging in WT rats, Example 2; type: in vivo, rat
Description: (§1) For better anatomic localization, CT co-registration was applied.
Following radiosynthesis, the pharmacokinetic profile of [^18F]21 was fully characterized by quantitative microPET/CT imaging in WT rats (n=3). […] The brain radioactivity peaked at 3 min postinjection followed by rapid clearance before reaching a plateau at 40-60 min postinjection.

myelin [5] = assay: In situ autoradiography of [18F]21 in mouse brain; type: in vivo; conditions: coronal, after tail vein injection
Description: Wild-type mice were euthanized at 30 min post iv injection of [^18F]21 (111 MBq, 3.0 mCi). The brains were rapidly removed, placed in OCT embedding medium, and frozen at −20° C. After reaching equilibrium at this temperature, the brains were coronally sectioned at 60 μm on a cryostat and mounted on superfrost slides. After drying by air at room temperature, the slides were put in a cassette and exposed for 20 min to film to obtain images.
To validate the PET results and confirm that the PET signals were indeed from specific binding to myelin, we conducted ex vivo autoradiography in the mouse brain following administration of [^18F]21 through tail vein injections. After 1 h, the mouse brain was dissected for coronal tissue sectioning. […] Thus, combination of in situ autoradiography and PET imaging confirmed that [^18F]21 binds specifically to myelin in vivo.

myelin [6] = assay: Quantitative microPET/CT imaging in Shiverer and WT mice; type: in vivo, mouse; conditions: microPET
Description: as §1
To further evaluate the in vivo binding specificity of [^18F]21, we investigated the pharmacokinetic profiles of [^18F]21 in a Shiverer mouse model that is deficient in myelin in the brain. Thus, the pharmacokinetic profiles of [^18F]21 were quantitatively compared between Shiverer mice (C3Fe.SWV-Mbpshi/J, n=2) and age-matched WT mice (CB57J, n=2).
Dynamic emission scans were acquired for 60 min in 3D list mode immediately after [^18F]21 (0.3 mCi each mouse, 11.1 MBq) was administered. The brain uptake of [^18F]21 was lower in the Shiverer brain than in the WT littermates (1.25 vs 1.64). After the brain concentration of [^18F]21 reached a plateau, the SUVs from 40 to 60 min were summarized and compared.

myelin [7] = assay: Quantitative microPET/CT imaging of spinal cord in rat SCI model; type: in vivo; conditions: for uptake in T13: normalized to average spine uptake
Description: Sprague-Dawley female rats (220-250 g, 8 weeks old) were anesthetized and a restricted laminectomy was conducted to expose the dorsal surface of T13. The vertebral column between T12 and L1 was then stabilized with clamps and forceps fixed to the base of an Infinite Horizon impact device. The midpoint of T13 was impacted with a force of 250 kDyn using a 2.5 mm stainless steel impactor tip, which was used to induce a moderately severe contusive injury to the spinal cord. The musculature was then sutured over the laminectomy site and the skin closed with wound clips followed by subsequent treatment with Marcaine at the incision site. The force/displacement graph was used to monitor impact consistency. After surgery, the animals were carefully monitored daily for pain and body weight with manual bladder expression 2-3 times daily to stimulate reflex voiding until the animals could urinate independently.
as §1
So far, imaging of the spinal cord remains a great challenge. […] Next, we asked whether [18F]21 PET is capable of in vivo imaging of myelin deficiency or myelin damage in living animal models. We conducted [^18F]21-PET imaging in a rat model of thoracic contusive SCI. In this model, the contusion was made at T13 to introduce demyelination. In vivo [^18F]21 PET imaging was performed before (as a baseline scan) and 1 day after contusion. The uptake of [^18F]21 in every spine segment was then normalized to the average spine uptake. […] After microPET/CT imaging, we conducted in situ histological staining of the spinal cord 60 min after injection of nonlabeled compound 21 through the tail vein.

Row | Structure (SMILES) | detection of demyelinated lesion by fluorescent staining (myelin [1]) | brain/spinal cord entry and in situ myelin staining (myelin [2]) | in situ histological staining of SCI (T13) tissue section (myelin [3]) | brain uptake ([4]; WT rats (n=3), microPET/CT) | time constant of clearance ([4]; WT rats, calculated from fitted time-radioactivity curve) | time of peak brain radioactivity ([4]; WT rats, postinjection) | time of plateau of brain radioactivity ([4]; WT rats, postinjection) | autoradiographic labeling (myelin [5]) | brain uptake (myelin [6]; Shiverer mouse brain) | brain uptake (myelin [6]; WT littermates) | uptake in L1 (myelin [7]; 1 day post-T13 contusion) | uptake in T12 (myelin [7]; 1 day post-T13 contusion) | uptake in T13 (myelin [7]; SCI group, 1 day post-T13 contusion) | uptake in T13 (myelin [7]; baseline scan before contusion) | uptake in L1 (myelin [7]; before contusion) | uptake in T12 (myelin [7]; before contusion)
1 | CNc1ccc(/C=C/c2ccc(NCc3cn(CCF)nn3)cc2)cc1 [Compound 21, (E)-N-((1-(2-Fluoroethyl)-1H-1,2,3-triazol-4-yl)methyl)-4-(4-(methylamino)styryl)aniline] | capable of detecting the demyelinated focal lesion by fluorescent staining; also recorded: can be used to detect demyelinated lesion | readily entered the brain and spinal cord and localized in all the myelinated regions in proportion to the myelin content; also recorded: crosses the BBB and stains myelinated areas of the mouse brain | showed that a demyelinated lesion was present at the dorsal column | – | – | – | – | – | – | – | – | – | – | – | – | –
2 | CNc1ccc(/C=C/c2ccc(NCc3cn(CC[18F])nn3)cc2)cc1 [[^18F]21] | – | – | – | high uptake in the brain | 19.45 min | 3 min | 40 to 60 min | distinctly labeled the corpus callosum | 1.25 | 1.64 | 1.08 | 0.99 | 0.81 | 1.02 | 1.05 | 0.99
